Assay results from paper PMC10300829 (2023).

Assays:
[1] = test system: C9-24mer (DNA, G4) GGGGCCGGGGCCGGGGCCGGGGCC; assay: CD melting; conditions: K+ 5 mM; 30 mM Tris-HCl pH 7.4; 2 µM DNA, 8 µM compound (4 equivalents)
[2] = test system: C9-RNA (RNA, G4) GGGGCCGGGGCCGGGGCCGGGGCC; assay: CD melting; conditions: K+ 5 mM; 30 mM Tris-HCl pH 7.4; 5 µM RNA, 2 equivalents (10 µM); Tm 76 to 93 °C
[3] = test system: Dup I + II (DNA, duplex) GGGCATAGTGCGTGGCGTTTAGC/GCTAAACGCCACGCACTATGCCC; assay: CD and native PAGE; conditions: K+ 5 mM; 30 mM Tris-HCl pH 7.4; co-annealed; PAGE with 8 µM Fangchinoline, 2 µM each strand
[4] = test system: C9-24mer G + C (C9-24mer with C9-24mer-C) (DNA, other) GGGGCCGGGGCCGGGGCCGGGGCC/GGCCCCGGCCCCGGCCCCGGCCCC; assay: CD and native PAGE; conditions: K+ 5 mM; 30 mM Tris-HCl pH 7.4; co-annealed; PAGE with 8 µM Fangchinoline; parallel GQ induced
[5] = test system: C9-48mer (DNA, G4) GGGGCCGGGGCCGGGGCCGGGGCCGGGGCCGGGGCCGGGGCCGGGGCC; assay: CD melting at 265 nm; conditions: K+ 5 mM; 30 mM Tris-HCl pH 7.4; 1 µM DNA; Tm 90 °C at 1 equivalent, undetectable above 4 equivalents
[6] = test system: FRET I + II (DNA, G4) GGGGCCGGGGCCGGGGCCGGGGCCAGAGGTAAAAGGATAATGGCCACGGTGCGGACGGC/GCCGTCCGCACCGTGGCCATTATCCTTTTACCTCT; assay: FRET (Cy3/Cy5) and CD; conditions: K+ 100 mM; 30 mM Tris-HCl pH 7.4; 2 µM DNA, 8-24 µM compound; FRET efficiency falls to 0.46
[7] = test system: C9-24mer (DNA, G4) GGGGCCGGGGCCGGGGCCGGGGCC; assay: CD titration at 265 nm, Hill fit; conditions: K+ 5 mM; 30 mM Tris-HCl pH 7.4; co-annealed; 2 µM DNA; per GQ unit; ligand induces parallel GQ; apparent
[8] = test system: C9-48mer (DNA, G4) GGGGCCGGGGCCGGGGCCGGGGCCGGGGCCGGGGCCGGGGCCGGGGCC; assay: CD titration at 265 nm, Hill fit; conditions: K+ 5 mM; 30 mM Tris-HCl pH 7.4; co-annealed; 1 µM DNA; per GQ unit; ligand induces parallel GQ; apparent

ΔTm [1]: 6 °C
ΔTm [2]: 17 °C
binding [3]: no
binding [4]: yes
binding [5]: yes
binding [6]: yes
Kb [7]: (4.0 ± 0.3) × 10^5 M^-1
Kb [8]: (6.6 ± 0.2) × 10^5 M^-1
Structure (SMILES): COc1ccc2cc1Oc1ccc(cc1)C[C@H]1c3cc(c(OC)cc3CCN1C)Oc1c(O)c(OC)cc3c1[C@H](C2)N(C)CC3
